From paper PMC6201930 (PLoS ONE, 2018)
Several values for one entry are separate records, joined by “and”; a condition that tells them apart may be missing. Equal entries are not always repeated. Where two headings read alike, the source gives them in different places.

Columns and labels:
[1] = tested on: p53 R213* UGA premature termination codon in HDQ-P1 mammary carcinoma cells; assay: HDQ-p53UGA213 readthrough assay (full-length p53, MSD immunoassay); type: cell-based, human; conditions: for HDQ-p53UGA213 (Maxfold): maximum readthrough activity above background
Experimental: We utilized HDQ-P1 mammary carcinoma cells, which are homozygous for R213*, a UGA premature termination codon in the gene for the tumor suppressor protein p53 [30]. […] Western blot hybridization and Meso Scale Discovery (MSD) immunoassay detection of p53 were done as previously described. […] Cells (45K per well) were grown in 96-well plates and treated with compounds for 24 hours. […] Cells were lysed with 60 μl per well of lysis buffer (20 mM Tris-HCL, pH 7.5, 1 mM EGTA, 1 mM EDTA,150 mM Nacl, 0.5% Triton X100) for one hour at room temperature and 30 μl of lysate per well were transferred to the coated plate and incubated overnight at 4 °C. […] Plates were then washed three times with PBS-T and 30 μl of 0.25 μ/ml goat anti-rabbit IgG-Sulfo-tag antibody (MSD) in TBS-C was added and incubated for 1 hour at room temperature. Plates were then washed three times with PBS-T and 150 μl read buffer (MSD) was added. Plates were read immediately in a SECTOR S 600 (MSD).

[2] = tested on: tGFP-CFTR542X-HA-HIS construct (codon 542 UGA) in 293H cells; assay: tGFP-542X readthrough assay (HA-HIS MSD immunoassay); type: cell-based, human
[3] = tested on: fLuc mRNA harboring a UGA nonsense mutation at codon 190 (fLuc-190-NS); type: biochemical, rabbit
Text: ThefLuc-190-NS assay is an in vitro rabbit reticulocyte lysate translation of an fLuc mRNA harboring a UGA nonsense mutation at codon 190 (fLuc-190-NS). It is believed that positively charged aminoglycosides are poorly taken up by cells, and we used this cell-free readthrough assay to eliminate the potential variable of cell uptake when measuring readthrough potency. […] Readthrough protein was detected using a HA-HIS MSD immunoassay described previously.
This cell-free translation assay used synthetic LUC mRNAs harboring an EMCV IRES and LUC codon 190-UGA premature stop codon prepared using the MegaScript in vitro transcription kit (Ambion). Translation reactions were done with the Rabbit Reticulocyte Lysate System (Promega) with 100 ng RNA and increasing concentrations of aminoglycosides. The amount of luminescence produced was determined after approximately 4 hours using a Viewlux CCD imager (Perkin-Elmer). Fold suppression over background was calculated as (aminoglycoside light units/PBS light units).

[4] = Cytotoxicity in stimulated PBMCs (CellTitre-Glo ATP); conditions: human, Stimulated PBMC CC50, AVERAGE (S1 File)
Text: (§1) When considering compounds for potential readthrough therapy it is important to monitor cellular and animal safety. In order to determine the most promising compounds to further evaluate in in vivo safety, we measured cytotoxicity in two different cell types. We used activated human peripheral blood mononuclear cells (PBMCs) (Table 2 and Fig 2D and 2E). PBMCs are a primary cell that when activated with phytohaemagglutinin (PHA) expand quickly and are commonly used as an in vitro surrogate for rapidly growing cells in the human body to evaluate cytotoxicity. Prior to advancing compounds into human studies, safety evaluation in rodents is performed. As an in vitro surrogate for rodent toxicity, we used primary mouse myoblasts.
(§2) Frozen human Peripheral Blood Mononuclear Cells (PBMCs) were obtained from […] (Alameda, CA, Cat# PB003F) from a single donor. […] Plates were incubated at 37°C with 5% CO2 for 4 hours prior to compound treatment. Compounds were serially diluted and added to the plates. Plates were incubated at 37°C, 5% CO2 incubator, for 72 hours prior to determinations of ATP levels. Cell viability was determined using a chemiluminescent assay to monitor adenosine triphosphate (ATP) levels in live cells (CellTitre-Glo; CTG; Promega, Cat#G7571). Methods were performed per the manufacturer’s instructions.

[5] = tested on: activated human peripheral blood mononuclear cells (PBMCs); assay: as above; conditions: read-out: Stimulated PBMC CC50
Text: as §1, §2

[6] = Cytotoxicity in myoblasts; conditions: mouse, primary mouse myoblasts, Myoblast CC50, AVERAGE (S1 File)
Text: as §1

[7] = tested on: primary mouse myoblasts; assay: Cytotoxicity in myoblasts; conditions: read-out: Myoblast CC50
Text: as §1

[8] = Neuromast toxicity assay (DASPEI staining); conditions: zebrafish, zebrafish embryos 5 dpf, neuromasts (hair cells), other: embryos exposed to the drug in 24-well plates
Experimental: (§3) All neuromast cytotoxicity assays were done at Biobide–BBD Biophenix SL (Gipuzkoa, Spain). […] Compounds were tested at 5 doses. After 24 hours of exposure embryos were incubated in DASPEI (2-(4-(dimethylamino)styryl) -N-Ethylpyridinium Iodide) for neuromast staining. Images of each embryo were taken and neuromasts counted. A compound was classified as ototoxic when the number of neuromasts in the treated group was less than that in the untreated control group (One Way ANOVA, multiple comparisons vs. vehicle).

[9] = tested on: mouse cochlear explants; design: method as in PMID 24251786; conditions: obtained previously; cited from earlier work
[10] = tested on: zebrafish neuromasts (hair cells); assay: Neuromast toxicity assay (DASPEI staining)
Experimental: as §3

[11] = concentration required to double the level of full-length p53 protein, average ± SD, at least three experiments, highest concentration 300 μM
[12] = individual experiments (S1 File)
[13] = individual experiments (S1 File), max fold
[14] = 293H cells, 24 hours, average ± SD
[15] = AVERAGE (S1 File), unit not given for EC5X
[16] = individual experiments (S1 File), unit not printed for EC5X (EC2X of the sheet in uM)
[17] = maximum readthrough above background, average ± SD
[18] = individual determinations (S1 File)

SMILES | HDQ-p53UGA213 EC2X ([1]; AVERAGE (S1 File)) [µM] | HDQ-p53UGA213 max ([1]; AVERAGE (S1 File)) | HDQ-p53UGA213 EC2X [1, 11] [µM] | HDQ-p53UGA213 EC2X [1, 12] | HDQ-p53UGA213 max [1, 13] | HDQ-p53UGA213 (Maxfold) ([1]; average ± SD) [fold] | tGFP-542X EC2X [2, 14] [µM] | tGFP-542X EC2X ([2]; AVERAGE (S1 File)) [µM] | tGFP-542X Maxfold ([2]; AVERAGE (S1 File)) | tGFP-542X EC5X [2, 15] | tGFP-542X EC2X [2, 12] | tGFP-542X Maxfold [2, 12] | tGFP-542X EC5X [2, 16] | tGFP-542X Maxfold [2, 17] [fold] | fLuc-190-NS EC2X ([3]; AVERAGE (S1 File)) [µM] | fLuc-190-NS MaxFold ([3]; AVERAGE (S1 File)) | fLuc-190-NS EC5X [3, 15] | fLuc-190-NS EC2X ([3]; cell-free, average ± SD) [µM] | fLuc-190-NS EC2X [3, 12] | fLuc-190-NS MaxFold [3, 12] | other results
CN[C@@H]1[C@@H](O)[C@@H](O[C@@H]2[C@@H](O)[C@H](O[C@H]3O[C@H]([C@@H](C)N)CC[C@H]3N)[C@@H](N)C[C@H]2N)OC[C@]1(C)O [Gentamicin C2, gentamicin C2] | 141.9 | 5.8 | 142 ± 86 | 34.99 µM and 16.61 µM and 97.73 µM and 112.3 µM and 133.88 µM and 91.16 µM and 121.67 µM and 256.3 µM and 179.64 µM and 255.57 µM and 260.59 µM | 4.1 and 15.8 and 4 and 3.2 and 5.2 and 3.9 and 2.4 and 15.7 and 3.5 and 3 | 6 ± 5 | 266 ± 44 | 265.9 | 8.9 | 653.9 | 225 µM and 260 µM and 312.48 µM | 11 and 9 and 7.29 | 566 and 647 and 748.53 | 9 ± 2 | 1.1 | 97.2 | 1.9 | 1.086 ± 0.763 | 1.97 µM and 0.62 µM and 0.67 µM | 84.91 and 97.65 and 109.15 | HDQ-p53UGA213 EC2X ([1]; concentration required to double the level of full-length p53 protein, average ± SD, at least three experiments, highest concentration 300 μM, listed as C2): triple digit; fLuc-190-NS MaxFold ([3]; cell-free, average ± SD): 97 ± 12 fold; fLuc-190-NS EC5X [3, 16]: 2.76 and 1.44 and 1.41; CC50 at 72 h [4]: 2180 µM; CC50 [5, 18]: 3800 µM and 566 µM; CC50 [6]: 3780 µM; CC50 [7, 18]: 6100 µM and 4310 µM and 911 µM; CC50 at 24 h ([8]; Neuromast CC50, AVERAGE (S1 File)): 2.8 µM; CC50 at 24 h ([8]; Neuromast CC50, individual determinations (S1 File)): 2.8 µM
C[C@@H](O)C1O[C@H](O[C@@H]2C(N)C[C@@H](NC(=O)[C@@H](O)CCN)[C@@H](O)C2O[C@@H]2O[C@H](CN)[C@H](O)C2O)[C@@H](N)C(O)[C@@H]1O (stereo partly shown) [NB84, reference compound] | 16.6 | 29.7 | 17 ± 5 | 20.31 µM and <15.63 µM and 17.59 µM and 8.82 µM and 19.52 µM | 15.6 and 52.2 and 25.2 and 30.9 and 25.4 and 29 | 30 ± 12 | 38 ± 12 | 38.2 | 110.3 | 109.2 | 25 µM and 46 µM and 44 µM | 176 and 74 and 81 | 67 and 132 and 128 | 110 ± 57 | 0.0453 | 180.8 | 0.1430 | 0.045 ± 0.011 | 0.0389 µM and 0.0393 µM and 0.0578 µM | 172.62 and 163.42 and 206.48 | fLuc-190-NS EC5X [3, 16]: 0.1461 and 0.1276 and 0.1554; CC50 ([5]; AVERAGE (S1 File)): 440 µM; CC50 [5, 18]: 536 µM and 1160 µM and 179 µM and 156 µM and 173 µM; CC50 ([7]; AVERAGE (S1 File)): 279 µM; CC50 [7, 18]: 411 µM and 147 µM; CC50 [9]: 20 µM; CC50 ([10]; read-out: Neuromast (CC50), zebrafish embryos 5 dpf, 24 hours exposure, maximum of two measurements): 8 ± 0.1 µM; CC50 ([10]; read-out: Neuromast CC50, AVERAGE (S1 File)): 7.9 µM; CC50 ([10]; read-out: Neuromast CC50, individual determinations (S1 File)): 7.8 µM
